Structures can show the parent of a compound that is named as a salt.
These compounds were tested against T1, IRAK4 (Homo sapiens, UniProt Q9NWZ3) (assay: biochemical). Conditions: not given.
T1 sequence (Q9NWZ3 1-460): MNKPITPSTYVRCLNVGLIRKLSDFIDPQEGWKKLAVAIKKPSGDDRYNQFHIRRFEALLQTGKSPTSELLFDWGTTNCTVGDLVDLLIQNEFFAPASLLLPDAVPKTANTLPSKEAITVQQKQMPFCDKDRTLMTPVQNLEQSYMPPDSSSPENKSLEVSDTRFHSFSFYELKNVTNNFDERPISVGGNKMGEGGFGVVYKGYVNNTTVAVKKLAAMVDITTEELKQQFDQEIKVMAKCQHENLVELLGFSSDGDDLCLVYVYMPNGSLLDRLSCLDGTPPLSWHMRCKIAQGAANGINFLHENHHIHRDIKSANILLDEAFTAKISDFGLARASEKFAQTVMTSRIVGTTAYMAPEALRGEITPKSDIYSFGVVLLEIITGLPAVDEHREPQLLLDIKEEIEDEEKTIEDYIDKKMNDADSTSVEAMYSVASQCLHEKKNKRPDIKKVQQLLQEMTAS

Row | Structure (SMILES) | IC50 [µM]
1 | CC(C)(C)c1cn2cc(C(=O)Nc3cccc(C(F)F)n3)c(OC3CCC3)cc2n1 [Example 267, 2-(tert-Butyl)-7-cyclobutoxy-N-(6-(difluoromethyl)pyridin-2-yl)imidazo[1,2-a]pyridine-6-carboxamide] | 0.002
2 | CCOc1nc(C(=O)Nc2cc(F)cnc2OC)cn2cc(C3CCCOC3)nc12 (centres unmarked) [Example 271, 8-Ethoxy-N-(5-fluoro-2-methoxypyridin-3-yl)-2-(tetrahydro-2H-pyran-3-yl)imidazo[1,2-a]pyrazine-6-carboxamide] | 0.0073
3 | CCOc1nc(C(=O)Nc2cc(F)cn(C)c2=O)cn2cc(C3CCCOC3)nc12 (centres unmarked) [Example 272, 8-Ethoxy-N-(5-fluoro-1-methyl-2-oxo-1,2-dihydropyridin-3-yl)-2-(tetrahydro-2H-pyran-3-yl)imidazo[1,2-a]pyrazine-6-carboxamide] | 0.0098
4 | CCOc1nc(C(=O)Nc2cccnc2OC)cn2cc(C3CCOC3)nc12 (centres unmarked) [Example 273, 8-Ethoxy-N-(2-methoxypyridin-3-yl)-2-(tetrahydrofuran-3-yl)imidazo[1,2-a]pyrazine-6-carboxamide] | 0.0047
5 | Cn1ccc(NC(=O)c2cn3cc(C4CC4)nc3c(OC3CC3)n2)n1 [Example 281, 8-Cyclopropoxy-2-cyclopropyl-N-(1-methyl-1H-pyrazol-3-yl)imidazo[1,2-a]pyrazine-6-carboxamide] | 0.0264
6 | CCOc1nc(C(=O)Nc2ccn(CC3CC3)n2)cn2cc(C34CCC(C)(C3)OC4)nc12 (centres unmarked) [Example 282, N-(1-(cyclopropylmethyl)-1H-pyrazol-3-yl)-8-ethoxy-2-(1-methyl-2-oxabicyclo[2.2.1]heptan-4-yl)imidazo[1,2-a]pyrazine-6-carboxamide] | 0.0087
7 | COc1ncccc1NC(=O)c1cn2cc(C3CC3)nc2nc1OC(C)C [Example 283, 2-Cyclopropyl-7-isopropoxy-N-(2-methoxypyridin-3-yl)imidazo[1,2-a]pyrimidine-6-carboxamide] | 0.0025

Second part, the compound after the results:

Row | IC50 [µM] | Structure (SMILES)
8 | 0.0083 | CC(C)(C)c1cn2cc(C(=O)Nc3cccc(C(F)F)n3)c(OC3COC4(CC4)C3)cc2n1 (centres unmarked) [Example 268, 7-((4-Oxaspiro[2.4]heptan-6-yl)oxy)-2-(tert-butyl)-N-(6-(difluoromethyl)pyridin-2-yl)imidazo[1,2-a]pyridine-6-carboxamide]
9 | 0.0012 | CC(C)Oc1c(C(=O)Nc2cccc(C(F)F)n2)cn2cc(C34COC(CF)(C3)C4)nc2c1F [Example 269, N-(6-(Difluoromethyl)pyridin-2-yl)-8-fluoro-2-(1-(fluoromethyl)-2-oxabicyclo[2.1.1]hexan-4-yl)-7-isopropoxyimidazo[1,2-a]pyridine-6-carboxamide]
10 | 0.0023 | Cc1cnc2c(NC(=O)c3cn4cc(C56COC(CF)(C5)C6)nc4c(F)c3OC(C)C)cnn2c1 [Example 270, 8-Fluoro-2-(1-(fluoromethyl)-2-oxabicyclo[2.1.1]hexan-4-yl)-7-isopropoxy-N-(6-methylpyrazolo[1,5-a]pyrimidin-3-yl)imidazo[1,2-a]pyridine-6-carboxamide]
11 | 0.0016 | CCOc1nc(C(=O)Nc2cccc(C(F)F)n2)cn2cc(C34CCC(C)(C3)OC4)nc12 (centres unmarked) [Example 274, N-(6-(difluoromethyl)pyridin-2-yl)-8-ethoxy-2-(1-methyl-2-oxabicyclo[2.2.1]heptan-4-yl)imidazo[1,2-a]pyrazine-6-carboxamide]
12 | 0.006 | Cn1ccc(NC(=O)c2cn3cc(C45COC(C)(C4)C5)nc3nc2OC2CCCC2)n1 [Example 285, 7-(Cyclopentyloxy)-N-(1-methyl-1H-pyrazol-3-yl)-2-(1-methyl-2-oxabicyclo[2.1.1]hexan-4-yl)imidazo[1,2-a]pyrimidine-6-carboxamide]
13 | 5.98 | COCc1cc2nc(C34COC(C)(C3)C4)cn2cc1C(=O)Nc1ccn(C)n1 [Example 286, 7-(Methoxymethyl)-N-(1-methyl-1H-pyrazol-3-yl)-2-(1-methyl-2-oxabicyclo[2.1.1]hexan-4-yl)imidazo[1,2-a]pyridine-6-carboxamide]
14 | 7.14 | COCc1cc2nc(C34COC(C)(C3)C4)cn2cc1C(=O)Nc1cccn(C)c1=O [Example 287, 7-(Methoxymethyl)-N-(1-methyl-2-oxo-1,2-dihydropyridin-3-yl)-2-(1-methyl-2-oxabicyclo[2.1.1]hexan-4-yl)imidazo[1,2-a]pyridine-6-carboxamide]
15 | 1.23 | COCc1cc2nc(C34COC(C)(C3)C4)cn2cc1C(=O)Nc1cnn2cc(C)cnc12 [Example 288, 7-(Methoxymethyl)-2-(1-methyl-2-oxabicyclo[2.1.1]hexan-4-yl)-N-(6-methylpyrazolo[1,5-a]pyrimidin-3-yl)imidazo[1,2-a]pyridine-6-carboxamide]

Same assay, conditions: IRAK4 Biochemical Assay (1 mM ATP, 2 h) IC50 (μM), 1 mM ATP, 2 h, 100 pM IRAK4

Row | Structure (SMILES) | IC50 [µM]
16 | CC(C)(C)c1cn2cc(C(=O)Nc3cnn4cccnc34)c(OC3CCC3)cc2n1 [Example 266, 2-(tert-Butyl)-7-cyclobutoxy-N-(pyrazolo[1,5-a]pyrimidin-3-yl)imidazo[1,2-a]pyridine-6-carboxamide trifluoroacetate] | 0.0013
17 | CCOc1nc(C(=O)Nc2cccnc2OC)cn2cc(C3CC3)nc12 [Example 279, 2-Cyclopropyl-8-ethoxy-N-(2-methoxypyridin-3-yl)imidazo[1,2-a]pyrazine-6-carboxamide trifluoroacetate] | 0.0038
18 | Cc1cnc2c(NC(=O)c3cn4cc(C5CC5)nc4cc3OC(C)C)cnn2c1 [Example 280, 2-Cyclopropyl-7-isopropoxy-N-(6-methylpyrazolo[1,5-a]pyrimidin-3-yl)imidazo[1,2-a]pyridine-6-carboxamide trifluoroacetate] | 0.0019

Next, values leading:

Row | IC50 [µM] | Structure (SMILES)
19 | 0.0007 | CCCOc1nc(C(=O)Nc2cccnc2OC)cn2cc(C34CCC(C)(C3)OC4)nc12 (centres unmarked) [Example 275, N-(2-methoxypyridin-3-yl)-2-(1-methyl-2-oxabicyclo[2.2.1]heptan-4-yl)-8-propoxyimidazo[1,2-a]pyrazine-6-carboxamide trifluoroacetate]
20 | 0.0009 | CCOc1nc(C(=O)Nc2cccnc2OC)cn2cc(C34CCC(C)(C3)OC4)nc12 (centres unmarked) [Example 276, 8-Ethoxy-N-(2-methoxypyridin-3-yl)-2-(1-methyl-2-oxabicyclo[2.2.1]heptan-4-yl)imidazo[1,2-a]pyrazine-6-carboxamide trifluoroacetate]
21 | 0.0061 | CCOc1nc(C(=O)Nc2cc(F)cn(C)c2=O)cn2cc(C34CCC(C)(C3)OC4)nc12 (centres unmarked) [Example 277, 8-Ethoxy-N-(5-fluoro-1-methyl-2-oxo-1,2-dihydropyridin-3-yl)-2-(1-methyl-2-oxabicyclo[2.2.1]heptan-4-yl)imidazo[1,2-a]pyrazine-6-carboxamide trifluoroacetate]
22 | 0.0011 | CCOc1nc(C(=O)Nc2cccc3ccnn23)cn2cc(C34CCC(C)(C3)OC4)nc12 (centres unmarked) [Example 278, 8-Ethoxy-2-(1-methyl-2-oxabicyclo[2.2.1]heptan-4-yl)-N-(pyrazolo[1,5-a]pyridin-7-yl)imidazo[1,2-a]pyrazine-6-carboxamide trifluoroacetate]
23 | 0.0056 | CC(C)Oc1cc2nc(C34CCC(C)(C3)OC4)cn2cc1C(=O)Nc1cc(F)n(C)n1 (centres unmarked) [Example 284, N-(5-fluoro-1-methyl-1H-pyrazol-3-yl)-7-isopropoxy-2-(1-methyl-2-oxabicyclo[2.2.1]heptan-4-yl)imidazo[1,2-a]pyridine-6-carboxamide trifluoroacetate]

— patent publication US20230087118A1, “IMIDAZO[1,2-a][sequence] DERIVATIVES AND THEIR USE IN THE TREATMENT OF DISEASE” (priority 2019, published 2023)
